The results in this text go back to US6855710B2, “Substituted indolines with an inhibitory effect on various kinases and complexes of CDKs” (Boehringer Ingelheim Pharma KG, priority 1998, dated 2005).

The structures appear in SMILES notation.

Broadly, the melting point is the temperature, or range, at which the solid turns liquid. As to `CNC(=O)CN(c1ccc(N/C(=C2\C(=O)Nc3ccccc32)c2ccccc2)cc1)S(C)(=O)=O` [Example 192, (Z)-3-{1-[4-(N-methylaminocarbonylmethyl-N-methylsulphonyl-amino)-phenylamino]-1-phenyl-methylidene}-2-indolinone], the melting point is 268 to 270 °C. `CC(C)(C)OC(=O)N1CCN(Cc2ccc(N/C(=C3\C(=O)Nc4ccc([N+](=O)[O-])cc43)c3ccccc3)cc2)CC1` [Example 244, (Z)-3-{1-[4-(4-tert.butoxycarbonyl-piperazin-1-ylmethyl)-phenylamino]-1-phenyl-methylidene}-5-nitro-2-indolinone]: the melting point was 236 to 237 °C (dec.). Next, `CC(C)(C)OC(=O)Nc1ccc(N/C(=C2\C(=O)Nc3ccc([N+](=O)[O-])cc32)c2ccccc2)cc1` [Example 90, (Z)-3-[1-(4-tert.butoxycarbonylamino-phenylamino)-1-phenyl-methylidene]-5-nitro-2-indolinone]: 235 to 237 °C (dec.). `CC(=O)NCCc1ccc(N/C(=C2\C(=O)Nc3ccc([N+](=O)[O-])cc32)c2ccccc2)cc1` [Example 129, (Z)-3-{1-[4-(2-acetylamino-ethyl)-phenylamino]-1-phenyl-methylidene}-5-nitro-2-indolinone]: the melting point was 306 to 307 °C. `CNC(=O)CN(c1cccc(N/C(=C2\C(=O)Nc3ccccc32)c2ccccc2)c1)S(C)(=O)=O` [Example 320, (Z)-3-{1-[3-(N-methylaminocarbonylmethyl-N-methylsulphonyl-amino)-phenylamino]-1-phenyl-methylidene}-2-indolinone]: the melting point is 163 °C.

Take `O=C1Nc2ccc([N+](=O)[O-])cc2/C1=C(/Nc1ccc(N2CCOCC2)cc1)c1ccccc1` [Example 80, (Z)-3-[1-(4-morpholinophenylamino)-1-phenyl-methylidene]-5-nitro-2-indolinone]: the melting point was greater than 300 °C. Next, `Cl.NCc1ccc(N/C(=C2\C(=O)Nc3ccc([N+](=O)[O-])cc32)c2ccccc2)cc1`: greater than 370 °C; `CN1C(=O)/C(=C(\Nc2cccc(C#N)c2)c2ccccc2)c2ccccc21` [Example 73, (Z)-1-methyl-3-[1-(3-cyanophenylamino)-1-phenyl-methylidene]-2-indolinone]: 158 to 160 °C; `CC(=O)NCc1ccc(N/C(=C2\C(=O)Nc3ccc([N+](=O)[O-])cc32)c2ccccc2)cc1` [Example 143, (Z)-3-[1-(4-acetylaminomethyl-phenylamino)-1-phenyl-methylidene]-5-nitro-2-indolinone]: 345 to 346 °C. For `O=C(O)CNS(=O)(=O)c1ccc(N/C(=C2\C(=O)Nc3ccc([N+](=O)[O-])cc32)c2ccccc2)cc1` [Example 411, (Z)-3-{1-[4-(carboxymethylaminosulphonyl)-phenylamino]-1-phenyl-methylidene}-5-nitro-2-indolinone], the melting point was 177 to 180 °C (dec.). Under `CN(C)C(=O)CNS(=O)(=O)c1ccc(N/C(=C2\C(=O)Nc3ccc([N+](=O)[O-])cc32)c2ccccc2)cc1` [Example 412, (Z)-3-{1-[4-(dimethylaminocarbonylmethylaminosulphonyl)-phenylamino]-1-phenyl-methylidene}-5-nitro-2-indolinone] stands 281 to 283 °C; under `CN(Cc1ccccc1)Cc1ccc(N/C(=C2\C(=O)Nc3ccc([N+](=O)[O-])cc32)c2ccc(Cn3ccnc3)cc2)cc1` [Example 440, (Z)-3-{1-[4-(N-benzyl-N-methyl-aminomethyl)-phenylamino]-1-[4-(imidazol-1-ylmethyl)-phenyl]-methylidene}-5-nitro-2-indolinone], 195 to 198 °C.

In the case of `CN(C)CCOc1ccc(N/C(=C2\C(=O)Nc3ccccc32)c2ccccc2)cc1` [Example 284, (Z)-3-{1-[4-(2-dimethylaminoethyloxy)-phenylamino]-1-phenyl-methylidene}-2-indolinone], the melting point lay in the range of 258 to 260 °C.
